According to US5891622A, “Assessment of oxidative stress in vivo” (Oxford Biomedical Research, Inc., priority 1998, dated 1999):

Key:
[1] = test system: anti-8EPGF2 IgG; assay: specificity / cross-reactivity of anti-8EPGF2 IgG (competitive ELISA); assay type: binding, goat; details: for cross-reaction with anti-8EPGF2 IgG (in words) / cross-reaction with anti-8EPGF2 IgG: 8EPGF2 ELISA
Description: The IgG bound to the protein G column was eluted with 50 mM glycine-HCl buffer, pH 2.5, and immediately neutralized with 0.5M Tris-HCl, pH 7.6.
High-binding strip well microplates (Labsystems, Inc., Marlboro, Ma.) were coated with protein G-purified IgG suspended in 1M carbonate, pH 9.0, (1 μg/well; 200 μL/well final volume) and then covered with parafilm. After overnight incubation at room temperature, the wells were gently washed five times with tris buffered saline (TBS), pH 7.5, containing 0.1% tween. Non-specific sites were blocked by the addition of 0.2 mL of 5% (w/v) nonfat dry milk in TBS. After 2 hours of incubation at room temperature, the plates were washed three times with TBS-tween. […] Following incubation for 1 hour to permit competitive binding to bound antibody, unbound material was removed by thoroughly washing the wells with TBS-tween and 150 μL of a calorimetric substrate for HRP [3,3',5,5'tetramethylbenzidine (TMB) with hydrogen peroxide] (ELISA Technologies) was added. After incubation of the plate for 20 minutes, the reaction is stopped by addition of 75 μL of 1N H2 SO4, and the absorbance at 450 nm determined using a microtiter plate reader. Under these assay conditions, the amount of color in a well is inversely proportional to the initial concentration of the sample or standard ligand.

[2] = test system: anti-8EPGF2 IgG; assay: immunoaffinity column retention of 8EPGF2 on anti-8EPGF2 IgG resin; assay type: binding, goat; details: up to 10 ng 8EPGF2 applied
Description: Reacti-gel was obtained from Pierce Co. and anti-8EPGF2 immunoaffinity column was prepared according to the manufacturer's instruction. […] In each experiment samples were diluted to concentrations lower than the capacity of the column (~0.5 ng/100 μL) prior to application to the column.
Urine samples were applied to immunoaffinity columns, which were then eluted with acetonitrile:water (1:3), followed by acetone:water (90:10). The eluates were then processed and analyzed using the standard GC/MS protocol as described herein above. […] PGF2α has a slightly longer retention time than the [^2 H4 ]-PGF2α (the internal control) shown in the bottom chromatograms of FIG. 4A and 4B, because protium runs faster than deuterium on GC [Wendelborn et al, 1990]. The six peaks with m/z=569 are numbered by the order of elution and the elution time of each peak was divided by the elution time of internal standard, [^2 H4 ]-PGF2α, obtained at m/z=573 to calculate relative elution time of each peak. […] The identity of Peak I, II, III, and VI is not known.

[3] = test system: vasoconstriction; details: cited from earlier work
[4] = aqueous solution, non-enzymatic rearrangement to PGD2 and PGE2; cited from earlier work

SMILES | cross-reaction with anti-8EPGF2 IgG (in words) [1] | further results
CCCCC[C@H](O)/C=C/[C@@H]1[C@@H](CC(=O)CCCCC(=O)O)[C@@H](O)C[C@H]1O [6-keto-PGF1α] | did not cross-react | –
CCCCC[C@H](O)/C=C/[C@@H]1[C@H](CCCCCCC(=O)O)[C@@H](O)C[C@H]1O [8-epi-PGF1α, 5,6-dihydro-8-iso-PGF2α] | did not cross-react | –
CCCCC[C@H](O)/C=C/[C@@H]1[C@H](CCCCCCC(=O)O)[C@H](O)C[C@H]1O [8-epi-PGF1β] | did not cross-react | –
CCCCC[C@H](O)/C=C/[C@@H]1[C@H](C/C=C\CCCC(=O)O)[C@@H](O)C[C@H]1O [8EPGF2, 8-epi-prostaglandin F2α] | – | recognition by anti-8EPGF2 antibody (in words) ([1]; polyclonal antibody, ELISA): recognized; applied 8EPGF2 bound to antibody cross-linked to resin [2]: higher than 98%; unbound 8EPGF2 ([2]; 100 μl resin): lower than 2%; vasoconstrictor property (in words) [3]: vasoconstrictor property; effect of high serum concentration on renal arteries (in words) ([3]; hepatorenal syndrome patients): intense vasoconstriction of renal arteries
CCCCC[C@H](O)/C=C/[C@@H]1[C@@H](C/C=C\CCCC(=O)O)[C@@H](O)C[C@@H]1O [9α-11β-PGF2] | – | cross-reaction with anti-8EPGF2 IgG [1]: 4.1%
CCCCC[C@H](O)/C=C/[C@@H]1[C@@H](C/C=C\CCCC(=O)O)[C@H](O)C[C@H]1O [9β-11α-PGF2α] | did not cross-react | –
CCCCC[C@H](O)/C=C/[C@@H]1[C@@H](CCCCCCC(=O)O)[C@H](O)C[C@@H]1O [11β-PGF1β] | did not cross-react | –
CCCCC[C@H](O)CC[C@@H]1[C@@H](CCCCCCC(=O)O)[C@@H](O)C[C@H]1O [13,14-dihydro-PGF1α] | did not cross-react | –
CCCCCC(=O)CC[C@@H]1[C@@H](CCCCCCC(=O)O)[C@@H](O)C[C@H]1O [13-14-dihydro-15-keto-PGF1α] | did not cross-react | –
CCCCCC(=O)CC[C@@H]1[C@@H](C/C=C\CCCC(=O)O)[C@@H](O)C[C@H]1O [13-14-dihydro-15-keto-PGF2α] | – | cross-reaction with anti-8EPGF2 IgG [1]: 3%
CCCCC[C@H](O)/C=C/[C@H]1C(=O)C[C@H](O)[C@@H]1C/C=C\CCCC(=O)O [PGD2] | did not cross-react | –
CCCCC[C@H](O)/C=C/[C@@H]1[C@@H](CCCCCCC(=O)O)[C@H](O)C[C@H]1O [PGF1β] | did not cross-react | –
CCCCC[C@H](O)/C=C/[C@@H]1[C@@H](C/C=C\CCCC(=O)O)[C@@H](O)C[C@H]1O [PGF2α] | did not cross-react | –
CCCCC/C=C\C/C=C\C/C=C\C/C=C\CCCC(=O)O [arachidonic acid] | did not cross-react | –
CCCCC[C@H](O)/C=C/[C@H]1[C@H](O)CC(=O)[C@@H]1C/C=C\CCCC(=O)O [prostaglandin E2] | did not cross-react | –
CCCCC[C@@H](/C=C/[C@@H]1[C@@H](C/C=C\CCCC(=O)O)[C@@H]2C[C@H]1OO2)OO [prostaglandin G2] | – | t1/2 [4]: ~ 5 minutes
CCCCC[C@H](O)/C=C/[C@@H]1[C@@H](C/C=C\CCCC(=O)O)[C@@H]2C[C@H]1OO2 [prostaglandin H2] | – | t1/2 [4]: ~ 5 minutes
